# Results: BindingDB's records for patent WO2025049746 (Eikon Therapeutics, 2025)
# Assays:
# [1] = target: T1, Bifunctional 3'-5' exonuclease/ATP-dependent helicase WRN [480-1251] (UniProt Q14191); test: Biochemical Activity Assays
# T1 construct: 480-1251
# [2] = target: Bifunctional 3'-5' exonuclease/ATP-dependent helicase WRN (Homo sapiens, UniProt Q14191); test: ADP-Glo Kinase Assay
# Protocol: ATPase activity was measured using the ADP-Glo Kinase Assay following the manufacturers recommended protocol.
# T1 sequence (Q14191 480-1251): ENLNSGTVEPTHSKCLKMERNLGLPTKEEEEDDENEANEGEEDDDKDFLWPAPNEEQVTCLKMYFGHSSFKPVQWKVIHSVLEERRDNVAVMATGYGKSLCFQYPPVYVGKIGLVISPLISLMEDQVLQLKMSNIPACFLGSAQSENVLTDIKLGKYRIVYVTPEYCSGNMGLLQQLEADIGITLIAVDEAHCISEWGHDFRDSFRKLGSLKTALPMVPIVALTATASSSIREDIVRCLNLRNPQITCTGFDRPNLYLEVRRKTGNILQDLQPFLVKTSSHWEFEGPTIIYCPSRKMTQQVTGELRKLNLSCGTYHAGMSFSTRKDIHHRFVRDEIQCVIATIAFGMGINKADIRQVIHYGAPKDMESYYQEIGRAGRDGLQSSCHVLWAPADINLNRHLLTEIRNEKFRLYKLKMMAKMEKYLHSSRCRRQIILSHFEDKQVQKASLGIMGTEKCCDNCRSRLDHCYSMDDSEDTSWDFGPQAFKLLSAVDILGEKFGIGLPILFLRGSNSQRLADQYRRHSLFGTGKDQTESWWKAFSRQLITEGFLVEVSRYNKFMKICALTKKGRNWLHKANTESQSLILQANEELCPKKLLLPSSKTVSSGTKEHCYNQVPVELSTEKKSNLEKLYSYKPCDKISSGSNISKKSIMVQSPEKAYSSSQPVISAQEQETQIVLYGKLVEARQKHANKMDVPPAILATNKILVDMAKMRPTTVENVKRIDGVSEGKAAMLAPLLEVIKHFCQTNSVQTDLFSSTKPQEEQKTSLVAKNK
# Chain of Bifunctional 3'-5' exonuclease/ATP-dependent helicase WRN (Q14191 whole entry): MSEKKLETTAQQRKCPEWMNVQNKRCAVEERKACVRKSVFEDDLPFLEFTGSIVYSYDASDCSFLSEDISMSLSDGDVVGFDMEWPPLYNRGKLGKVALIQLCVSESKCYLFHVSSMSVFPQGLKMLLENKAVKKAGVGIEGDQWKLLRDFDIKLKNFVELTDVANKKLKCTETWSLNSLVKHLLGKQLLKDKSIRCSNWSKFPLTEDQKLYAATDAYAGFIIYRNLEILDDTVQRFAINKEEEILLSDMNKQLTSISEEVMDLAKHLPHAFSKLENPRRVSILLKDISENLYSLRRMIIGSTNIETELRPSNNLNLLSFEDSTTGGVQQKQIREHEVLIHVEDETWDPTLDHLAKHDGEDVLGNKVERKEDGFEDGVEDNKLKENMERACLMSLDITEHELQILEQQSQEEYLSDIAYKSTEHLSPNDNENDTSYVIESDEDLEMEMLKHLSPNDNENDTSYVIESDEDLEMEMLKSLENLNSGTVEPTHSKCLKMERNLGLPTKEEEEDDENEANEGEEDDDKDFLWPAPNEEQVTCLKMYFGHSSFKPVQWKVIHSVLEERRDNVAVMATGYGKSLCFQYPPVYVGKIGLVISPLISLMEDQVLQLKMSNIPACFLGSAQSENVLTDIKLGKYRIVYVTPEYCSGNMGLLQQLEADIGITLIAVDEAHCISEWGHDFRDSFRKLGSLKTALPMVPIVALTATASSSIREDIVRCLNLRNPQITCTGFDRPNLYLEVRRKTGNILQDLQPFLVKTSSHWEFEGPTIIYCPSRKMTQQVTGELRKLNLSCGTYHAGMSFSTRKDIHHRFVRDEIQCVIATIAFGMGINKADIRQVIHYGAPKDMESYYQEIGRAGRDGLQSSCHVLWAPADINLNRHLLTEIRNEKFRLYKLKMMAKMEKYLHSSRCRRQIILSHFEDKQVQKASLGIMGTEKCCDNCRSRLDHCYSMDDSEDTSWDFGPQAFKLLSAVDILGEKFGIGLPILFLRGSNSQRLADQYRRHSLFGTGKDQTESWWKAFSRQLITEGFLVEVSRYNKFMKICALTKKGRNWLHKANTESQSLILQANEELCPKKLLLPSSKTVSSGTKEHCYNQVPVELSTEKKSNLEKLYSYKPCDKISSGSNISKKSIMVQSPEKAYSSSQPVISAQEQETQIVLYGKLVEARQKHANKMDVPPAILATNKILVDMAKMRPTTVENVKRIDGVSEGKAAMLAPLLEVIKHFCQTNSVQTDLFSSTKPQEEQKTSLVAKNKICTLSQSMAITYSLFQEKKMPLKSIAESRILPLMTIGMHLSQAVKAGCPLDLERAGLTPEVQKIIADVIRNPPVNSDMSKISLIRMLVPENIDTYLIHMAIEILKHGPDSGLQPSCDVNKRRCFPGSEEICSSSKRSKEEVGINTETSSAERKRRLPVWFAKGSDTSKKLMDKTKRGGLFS
SMILES,IC50 [1],IC50 [2]
"CCc1c(N2CCN(C(=O)c3ncnc(C)c3O)CC2)c(=O)n2nc(-c3cccc4c3COCC4)nc2n1CC(=O)Nc1c(Cl)cc(C(F)(F)F)c2c1CC2 [WO2025049746, Example 390]",52 nM,84 nM
"CCc1c(N2CCN(C(=O)c3nc4c(cc3O)CCOC4)CC2)c(=O)n2nc(-c3ccc4c(c3)COC4(C)C)nc2n1CC(=O)Nc1ccc(C(F)(F)F)cc1Cl [WO2025049746, Example 463]",84.8 nM,70.5 nM
"CCc1c(N2CCN(C(=O)c3ncnc(N4CC(F)(F)C4)c3O)CC2)c(=O)n2nc(-c3ccc4c(c3)COC4)nc2n1CC(=O)Nc1ccc(C(F)(F)F)cc1Cl [WO2025049746, Example 412]",29 nM,37 nM
"CCc1c(N2CCN(C(=O)c3ncnc(C)c3O)CC2)c(=O)n2nc(-c3cc4c(cnn4C)cc3C)nc2n1CC(=O)Nc1ccc(C(F)(F)F)cc1Cl [WO2025049746, Example 306]",29700 nM,29700 nM
"CCc1c(N2CCN(C(=O)c3ncnc(C)c3O)CC2)c(=O)n2nc(-c3cc(C)c4nn(C)cc4c3)nc2n1CC(=O)Nc1ccc(C(F)(F)F)cc1Cl [WO2025049746, Example 299]",31 nM,29 nM
"CCc1c(N2CCN(C(=O)c3ncnc(C)c3O)CC2)c(=O)n2nc(-c3ccc4c(c3)COC4)nc2n1CC(=O)Nc1c(Cl)cc(C(F)(F)F)c2scnc12 [WO2025049746, Example 424]",37 nM,47 nM
"CCc1c(N2CCN(C(=O)c3nc4n(c(=O)c3O)CCOC4)CC2)c(=O)n2nc(N(C)C)nc2n1CC(=O)Nc1ccc(C(F)(F)F)c2c1CC2 [WO2025049746, Example 109]",14.7 nM,13.4 nM
"CCc1c(N2CCN(C(=O)c3cccc4c3nnn4C)CC2)c(=O)n2nc(C3=CCOCC3)nc2n1CC(=O)Nc1ccc(C(F)(F)F)cc1Cl [WO2025049746, Example 49]",46.7 nM,130 nM
"CCc1c(N2CCN(C(=O)c3ncnc(C)c3O)CC2)c(=O)n2nc(-c3ccc4cn(C)nc4c3)nc2n1CC(=O)Nc1ccc(C(F)(F)F)cc1Cl [WO2025049746, Example 177]",30 nM,31 nM
"CCc1c(N2CCN(C(=O)c3nccc4nc[nH]c34)CC2)c(=O)n2nc(-c3ccc4c(c3)CCOC4)nc2n1CC(=O)Nc1ccc(C(F)(F)F)cc1Cl [WO2025049746, Example 92]",23 nM,27.9 nM
"CCc1c(N2CCN(C(=O)c3ncnc(C)c3O)CC2)c(=O)n2nc(-c3ccc4c(c3)CSC4)nc2n1CC(=O)Nc1ccc(C(F)(F)F)cc1Cl [WO2025049746, Example 257]",30 nM,28 nM
"CCc1c(N2CCN(C(=O)c3nc4n(c(=O)c3O)CCCC4)CC2)c(=O)n2nc(-c3ccc4c(c3)COC4)nc2n1CC(=O)Nc1ccc(C(F)(F)F)cc1Cl [WO2025049746, Example 427]",19 nM,19 nM
"CCc1c(N2CCN(C(=O)c3ncnc(C)c3O)CC2)c(=O)n2nc(-c3cccc4c3OCCO4)nc2n1CC(=O)Nc1ccc(C(F)(F)F)cc1Cl [WO2025049746, Example 2]",18.7 nM,27.1 nM
"CCc1c(N2CCN(C(=O)c3ncnc(C)c3O)CC2)c(=O)n2nc(-c3ccn4nccc4c3)nc2n1CC(=O)Nc1ccc(C(F)(F)F)cc1Cl [WO2025049746, Example 176]",76 nM,95 nM
"CCc1c(N2CCN(C(C)=O)CC2)c(=O)n2nc(N(C)C)nc2n1CC(=O)Nc1ccc(C(F)(F)F)cc1Cl [WO2025049746, Example 81]",174 nM,533 nM

# Further compounds by falling IC50 [1], results first:
IC50 [1],IC50 [2],SMILES
29700 nM,29700 nM,"CCc1c(N2CCN(C(=O)c3ncnc(C)c3O)CC2)c(=O)n2nc(C3=CCOCC3)nc2n1CC(=O)NC12CC(CCC(F)(F)F)(C1)C2 [WO2025049746, Example 361]"
9390 nM,> 29700 nM,"Cc1ncnc(C(=O)N2CCN(c3c4n(c5nc(-c6ccc7c(c6)COC7(C)C)nn5c3=O)[C@@H](C(=O)Nc3ccc(C(F)(F)F)cc3Cl)C[C@@H]4C)[C@H]3CC[C@@H]32)c1O [WO2025049746, Example 466]"
372 nM,467 nM,"CCc1c(N2CCN(C(=O)c3ccccc3NS(=O)(=O)C3CC3)CC2)c(=O)n2nc(-c3ccc4c(c3)CCOC4)nc2n1CC(=O)Nc1ccc(C(F)(F)F)c2c1CC2 [WO2025049746, Example 110]"
133 nM,413 nM,"CCc1c(N2CCN(C(=O)C(C)n3cncn3)CC2)c(=O)n2nc(C3=CCOCC3)nc2n1CC(=O)Nc1ccc(C(F)(F)F)cc1Cl (configuration not stated) [WO2025049746, Example 62]"
67 nM,81 nM,"CCc1c(N2CCN(C(=O)c3ncnc(C)c3O)CC2)c(=O)n2nc(-c3ccc4c(c3)CC(C)(C)O4)nc2n1CC(=O)Nc1ccc(C(F)(F)F)cc1Cl [WO2025049746, Example 194]"
62 nM,86 nM,"CCc1c(N2CCN(C(=O)c3ncnc(C)c3O)CC2)c(=O)n2nc(-c3cccc4c3CCO4)nc2n1CC(=O)Nc1ccc(C(F)(F)F)cc1Cl [WO2025049746, Example 348]"
48.8 nM,63.9 nM,"CCc1c(N2CCN(C(=O)c3ncnc(C)c3O)CC2)c(=O)n2nc(N3CCCOCC3)nc2n1CC(=O)Nc1ccc(C(F)(F)F)cc1Cl [WO2025049746, Example 25]"
38 nM,35 nM,"CCc1c(N2CCN(C(=O)c3ncnc(C)c3O)CC2)c(=O)n2nc(-c3cnc4nn(C)cc4c3)nc2n1CC(=O)Nc1ccc(C(F)(F)F)cc1Cl [WO2025049746, Example 313]"
37 nM,37 nM,"CCc1c(N2CCN(C(=O)c3ncnc(C)c3O)CC2)c(=O)n2nc(-c3ccc4c(c3F)COC4(C)C)nc2n1CC(=O)Nc1ccc(C(F)(F)F)cc1Cl [WO2025049746, Example 216]"
35 nM,44 nM,"CCc1c(N2CCN(C(=O)c3ncnc(C)c3O)CC2)c(=O)n2nc(-c3ccc4c(c3)CCO4)nc2n1CC(=O)Nc1ccc(Cl)c(OC(F)F)c1Cl [WO2025049746, Example 405]"
33 nM,25 nM,"CCc1c(N2CCN(C(=O)c3ncnc(C)c3O)CC2)c(=O)n2nc(-c3ccc(OCC(=O)O)cc3)nc2n1CC(=O)Nc1ccc(C(F)(F)F)cc1Cl [WO2025049746, Example 330]"
29.4 nM,37.1 nM,"CCc1c(N2CCN(C(=O)c3ncnc(C)c3O)CC2)c(=O)n2nc(-c3cccc4c3cnn4C)nc2n1CC(=O)Nc1ccc(C(F)(F)F)cc1Cl [WO2025049746, Example 22]"
28 nM,33 nM,"CCc1c(N2CCN(C(=O)c3ncnc(C)c3O)CC2)c(=O)n2nc(-c3cc(C)c4c(c3)COC4)nc2n1CC(=O)Nc1ccc(C(F)(F)F)cc1Cl [WO2025049746, Example 206]"
22.1 nM,28.5 nM,"CCc1c(N2CCN(C(=O)c3ncnc(C)c3O)CC2)c(=O)n2nc(-c3ccc4c(c3)OCO4)nc2n1CC(=O)Nc1ccc(C(F)(F)F)cc1Cl [WO2025049746, Example 10]"
22 nM,22 nM,"CCc1c(N2CCN(C(=O)c3ncnc(C)c3O)CC2)c(=O)n2nc(-c3ccc4nscc4c3)nc2n1CC(=O)Nc1ccc(C(F)(F)F)cc1Cl [WO2025049746, Example 266]"
14 nM,16 nM,"CCc1c(N2CCN(C(=O)c3ncnc(C)c3O)CC2)c(=O)n2nc(-c3cnn4c3CCC4)nc2n1CC(=O)Nc1ccc(C(F)(F)F)cc1Cl [WO2025049746, Example 166]"
